From patent publication US20160340683A1, “NANOCARRIER BASED PLANT TRANSFECTION AND TRANSDUCTION” (HER MAJESTY THE QUEEN IN RIGHT OF CANADA AS REPRESENTED BY …, priority 2007, published 2016)
fluorescein = fluorescein label at the N-terminus

These substances were tested on immature embryos (assay: Translocation of fluoresceinated CPPs in zygotic embryos, fluorescence microscopy). Conditions: in the presence of cellular permeabilizing agent (toluene).
Assay type: cell-based, Triticale cv AC Alta
Protocol: The embryos were isolated from spikes two weeks post-anthesis (scutellum diameter 1-2 mm). The immature seeds were surface sterilized with 70% ethanol for 30 s followed by treatment with 10% hypochlorite (Chlorex) and a drop of Tween 20, 3 min. Four washings of 1 min each were given with sterile water. The embryos were hand dissected under sterile conditions. Isolated embryos were placed on GEM medium (Eudes et al, 2003) for 24 h in dark at room temperature prior to CPP translocation studies.
Isolated and sterilized embryos (20-25) were imbibed in total volume of 420 μl permeabilization buffer (15 mM sodium chloride, 1.5 mM sodium citrate, pH 7.1) containing cellular permeabilization agent toluene/ethanol (1:4) in 1:20 ratio with permeabilization buffer. To this 2.1 μl of 1 mM fluoresceinated CPP was added to give a final concentration of 5 μM. In negative controls, the embryos were treated with FITC-dextran sulphate or M-Tat. The embryos were incubated in the permeabilization mix for 1 h in dark at room temperature, followed by two washings with permeabilization buffer. The embryos were then treated with trypsin:EDTA (0.25% solution, Sigma-Aldrich) in 1:2 ratio with permeabilization buffer for 5 min at room temperature to remove free peptide molecules. Embryos were washed two times with permeabilization buffer and subjected either for fluorescence microscopy or spectrofluorimetric analysis.
For Dextran Sulphate, the “Uptake seen by fluorescence microscopy (FIG. 1)” value was “some fluorescence”.

Same assay, conditions: mature and immature embryos, with or without permeabilization
In the case of Dextran Sulphate, the “Fluorescence under fluorescence microscope, overall comparison” value is reported as “none or very weak fluorescence”.
“FI-LLIILRRRIRKQAHAHSK-amide (fluorescein-LLIILRRRIRKQAHAHSK-NH2) [pVEC]” was tested, and the “Fluorescence under fluorescence microscope, overall comparison” value was “least uptake”.

Same assay, conditions: without cellular permeabilizing agent
In the case of Dextran Sulphate, the “Uptake seen by fluorescence microscopy (FIG. 1)” value is reported as “did not demonstrate any significant uptake”.

The substances below were run on isolated microspores of Triticale (variety Sunray) (assay: CPP delivery of GUS enzyme into isolated microspores, GUS staining). Conditions: GUS enzyme cargo:CPP 1:4, 1 hour at 37° C., three repeats.
Assay type: cell-based
Protocol: Triticale line Sunray grown in a growth cabinet with a photoperiod of 19 h day (intensity 300 μE m-2 s-1), and temperature 18-15° C. (day-night) with a relative humidity at about 70% was used as the donor plant material. The plants were fertilized every 2 weeks (20-20-20, 200 ppm) and treated with 2.5 ml I-1 Tilt™ (propiconazole, Syngenta) during the tillering stage and Intercept™ (0.004 g per litre of soil, Imidacloprid, Bayer) once sufficient root development was established. The first 10 tillers from each pot were harvested when the spike was at 3-4 cm, depending on the crop, from emergence from the boot. These tillers (to be used for microspore isolation) were subjected to pre-treatment in a refrigerator (4° C.) for 21 days with their bases in distilled water and their heads wrapped in aluminum foil. After 21±3 days of pre-treatment, the spikes were excised from their tillers and after an evaluation of their general appearance, only the most homogenous spikes were used. After confirming microspores at mid to bi-nucleate stage from a median floret, using acetocarmine staining, the tillers were processed for extraction.
Awns were removed with scissors in a laminar flow hood. Eight-fourteen spikes were used for microspore isolation. They were sterilized with 10% bleach (5.25% sodium hypochlorite) for 3 min followed by rinsing in sterile double distilled water four times of 1 min each with constant agitation. Outer glumes were removed and florets from all the spikes were aseptically dissected and transferred to a sterile and refrigerated 110 ml Warring blender cup (VWR international, #58983-093) containing 50 ml filter sterilized extraction buffer at 4° C. Florets were then blended twice for 7 s at low speed (18000 rpm). The slurry was then poured through a 1 mm sieve followed by pouring through a 100 μm sterile mesh (VWR International, #CA21008-950) into two 50 ml centrifuge tubes (25 ml each). The blender cup was rinsed with 50 ml extraction buffer at 4° C. and poured through the 100 μm mesh and was added to the first aliquot in the 50 ml tubes. The cells were then pelleted by centrifugation (100×g for 5 min at 4° C.) using a swinging bucket rotor. After pouring off the supernatant, the microspore-containing pellets were pooled together in one 50 ml tube and re-suspended in 50 ml cold extraction buffer. The cells were pelleted again with centrifugation (100×g for 5 min at 4° C.), the supernatant poured off and the pellet was transferred to a 15 ml tube. After re-suspending the pellet in CIMC Wash Buffer supplemented with 10 microM SS-31 peptide, it was subjected to wash and centrifugation using the above conditions. The supernatant was removed and the pellet was re-suspended in CIMC Wash buffer and centrifugation was repeated as above. The pellet was then suspended in 7 mL of 20% maltose at 4° C., layered with 1 mL of CIMC wash buffer and was centrifuged at 100 g for 13 min at 4° C. A band of microspores formed at the interface was collected in a new 15 ml tube. The cells were diluted with CIMC wash solution and subsequently collected by centrifugation at 150 g for 5 min. The supernatant was removed and the cells were finally suspended in a total volume of 1.4 ml of appropriate solution. After counting the cells using a haemocytometer, aliquots of 100,000 cells in 200 μl volume were prepared in 2 ml microcentrifuge tubes to be ready for transduction.
Peptide stock solutions were made in water at 1 μg/μl concentration. CPP (Nanocarrier) and GUS enzyme (cargo) were first prepared in separate microcentrifuge tubes. A total of 4 μg of CPP was prepared in sterile water to a final volume of 100 μl. Similarly, 1 μg of GUS enzyme was added to sterile water to a final volume of 100 μl. The contents of the two tubes were mixed together giving a ratio of 1:4 protein cargo:CPP. The complex was incubated for 30 min at room temperature (RT). Chariot (PAP1) protein delivering reagent was used as a positive control in the experiments. […]
With RRIRRRLRRRPKPRRRRRRR [CPP17] the “Average Transduction Efficiency” value was 46.54%.
With RRRRCTRRRTRSRRRPRR [CPP3] the “Average Transduction Efficiency” value was 57.63%.
RRRRKKRGRKGRDKEERRDR [CPP42] was tested, and the “Average Transduction Efficiency” value was 1.20%.
With RRRRKKRGRKGRDKEERRDRRRRRRR [CPP11] the “Average Transduction Efficiency” value was 16.61%.
With RRRRKKRGRKGRDKEERRDRRRRRRR [CPP40] the “Average Transduction Efficiency” value was 11.74%.
With RRRRRITRVRRRRRRR [CPP39] the “Average Transduction Efficiency” value was 13.15%.
In the case of RRRRRRRAGERRAREDMGRRKFR [CPP19], the “Average Transduction Efficiency” value is reported as 0%.
In the case of RRRRRRREKLAEATRGGGEKR [CPP35], the “Average Transduction Efficiency” value is reported as 0%.
In the case of RRRRRRRGRDARRR [CPP8], the “Average Transduction Efficiency” value is reported as 2.78%.
RRRRRRRRHEQRRRRRKRGRGR [CPP2] was tested, and the “Average Transduction Efficiency” value was 18.7%.
RRRRRRRRHGRR [CPP24] was tested, and the “Average Transduction Efficiency” value was 18.77%.
RRRRRRRRHLRR [CPP34] was tested, and the “Average Transduction Efficiency” value was 47.13%.
In the case of RRRRRRRRRRKRGGRR [CPP14], the “Average Transduction Efficiency” value is reported as 0%.
With RRRRRRRRRRVRFDSRR [CPP7] the “Average Transduction Efficiency” value was 16.63%.
For RRRRWRHRCATKTAATTLRRRRRRRRGRR [CPP29], the “Average Transduction Efficiency” value was 22.25%.
In the case of RRRVGRRAPRRRRR [CPP51], the “Average Transduction Efficiency” value is reported as 0%.
In the case of RRSGRRQRRRRRRRRKR [CPP66], the “Average Transduction Efficiency” value is reported as 23.38%.
For RRSKRDVRGRQRRRRRRRLFPRR [CPP1], the “Average Transduction Efficiency” value was 21.07%.
In the case of RRSLLSRRIRRRLRRRPKPRRRRRRR [CPP46], the “Average Transduction Efficiency” value is reported as 9.31%.
RRWRRRRSRRRRRRRRR [CPP18] was tested, and the “Average Transduction Efficiency” value was 0%.
RSGRRDRRRKKGSAR [CPP59] was tested, and the “Average Transduction Efficiency” value was 0%.
For RSSRRAAEGRRRRRRRREKR [CPP36], the “Average Transduction Efficiency” value was 0%.
In the case of RTSKRRVRRRRRRR [CPP38], the “Average Transduction Efficiency” value is reported as 0%.
With RVRSSRRAAEGRRRRRRREKR [CPP37] the “Average Transduction Efficiency” value was 1.94%.

What follows are substances tested on scutellum and somatic embryos of triticale (assay: CPP delivery of mCherry protein, confocal microscopy). Conditions: mCherry 1 μM with 60 μM CPP, overnight at RT.
Assay type: cell-based
Description: The fluorescent mCherry protein was chosen as the protein, while scutellum (dissected out of immature caryopses) and isolated microspore culture-derived somatic embryos of triticale were used as choice of tissue. Both scutellum and somatic embryos are amenable to tissue culture and can undergo somatic embryogenesis to regenerate green plants providing a direct means to obtain modified plants following a biocompatible CPP induced transduction. Scutellum is representative of a diploid tissue while microspore culture derived somatic embryos is a haploid tissue.
The protein:CPP complex was prepared by individually mixing mCherry protein (1 μM) with 60 μM of the 3 CPPs. Both scutellum and somatic embryos of triticale were treated with these different complex formulations overnight at RT. […] The red fluorescent signal was detected by confocal microscopy within both scutellum and somatic embryo cells.
In the case of RRIRRRLRRRPKPRRRRRRR [CPP17], the “Delivery of mCherry inside the cells, red fluorescent signal” value (shortened to “Delivery of mCherry inside the cells”) is reported as “able to interact noncovalently with mCherry, subsequently delivering it inside the cells”.
In the case of RRRRCTRRRTRSRRRPRR [CPP3], the “Delivery of mCherry inside the cells” value is reported as “able to interact noncovalently with mCherry, subsequently delivering it inside the cells”.
RRRRRRRRHLRR [CPP34] was tested, and the “Delivery of mCherry inside the cells” value was “able to interact noncovalently with mCherry, subsequently delivering it inside the cells”.
